Source: PubChem BioAssay AID588710 (Vanderbilt Specialized Chemistry Center, 2011)

Molecular target: Metabotropic glutamate receptor 5 (Rattus norvegicus) (UniProt P31424)
Assay: PubChem AID 588710
Conditions: HEK293 rat mGluR5 membranes, [3H]methoxyPEPy displacement

Metabotropic glutamate receptor 5 (Rattus norvegicus), sequence (P31424 whole entry, looked up): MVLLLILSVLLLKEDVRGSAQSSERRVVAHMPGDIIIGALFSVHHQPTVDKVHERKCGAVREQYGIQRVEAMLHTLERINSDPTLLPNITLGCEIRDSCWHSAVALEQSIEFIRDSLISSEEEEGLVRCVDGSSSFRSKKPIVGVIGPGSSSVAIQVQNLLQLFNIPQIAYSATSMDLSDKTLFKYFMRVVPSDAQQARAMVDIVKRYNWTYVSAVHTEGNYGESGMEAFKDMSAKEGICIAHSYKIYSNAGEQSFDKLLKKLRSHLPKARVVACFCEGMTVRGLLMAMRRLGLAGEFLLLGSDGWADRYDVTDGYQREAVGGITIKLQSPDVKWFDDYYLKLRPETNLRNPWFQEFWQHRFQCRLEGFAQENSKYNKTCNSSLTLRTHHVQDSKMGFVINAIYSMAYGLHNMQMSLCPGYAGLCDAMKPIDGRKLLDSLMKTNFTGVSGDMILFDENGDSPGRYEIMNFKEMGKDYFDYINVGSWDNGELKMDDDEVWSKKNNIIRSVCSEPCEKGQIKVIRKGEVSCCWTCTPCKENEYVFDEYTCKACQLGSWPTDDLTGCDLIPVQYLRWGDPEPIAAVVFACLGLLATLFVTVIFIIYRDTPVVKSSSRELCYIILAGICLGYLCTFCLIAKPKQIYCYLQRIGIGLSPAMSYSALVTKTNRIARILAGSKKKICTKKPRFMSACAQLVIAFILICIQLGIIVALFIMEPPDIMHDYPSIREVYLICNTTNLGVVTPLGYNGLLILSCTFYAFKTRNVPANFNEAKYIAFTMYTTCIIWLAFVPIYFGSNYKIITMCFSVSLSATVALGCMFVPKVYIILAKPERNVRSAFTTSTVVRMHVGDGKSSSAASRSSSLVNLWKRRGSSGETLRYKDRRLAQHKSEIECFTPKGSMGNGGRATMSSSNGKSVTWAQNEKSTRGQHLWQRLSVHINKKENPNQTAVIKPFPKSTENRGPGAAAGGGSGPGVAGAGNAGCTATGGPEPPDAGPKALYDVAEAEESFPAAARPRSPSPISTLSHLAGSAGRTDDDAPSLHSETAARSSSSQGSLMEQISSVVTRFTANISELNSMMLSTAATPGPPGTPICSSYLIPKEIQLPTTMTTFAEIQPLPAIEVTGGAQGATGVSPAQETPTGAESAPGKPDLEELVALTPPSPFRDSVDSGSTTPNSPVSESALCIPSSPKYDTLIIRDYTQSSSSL

C[C@@H](NC(=O)c1ccc(C#Cc2cccc(F)c2)cn1)C(C)(C)O
IC50: 4.84 nM
